pEC50: −log10 of the molar value. Values joined by “and” are separate entries in the source; they are usually repeats but may differ in a detail not shown here. Equal values may be shown once. “Also recorded” adds a separate entry of the source.

In general, pEC50 refers to the EC50 on a negative log10 scale, so that one unit is a factor of ten. Lower therefore signals a high EC50.

The test concerns the target T1, IDE (Homo sapiens, UniProt P14735).
T1 construct: made in house; host or cells: E. coli BL21
T1 sequence (P14735 1-1019): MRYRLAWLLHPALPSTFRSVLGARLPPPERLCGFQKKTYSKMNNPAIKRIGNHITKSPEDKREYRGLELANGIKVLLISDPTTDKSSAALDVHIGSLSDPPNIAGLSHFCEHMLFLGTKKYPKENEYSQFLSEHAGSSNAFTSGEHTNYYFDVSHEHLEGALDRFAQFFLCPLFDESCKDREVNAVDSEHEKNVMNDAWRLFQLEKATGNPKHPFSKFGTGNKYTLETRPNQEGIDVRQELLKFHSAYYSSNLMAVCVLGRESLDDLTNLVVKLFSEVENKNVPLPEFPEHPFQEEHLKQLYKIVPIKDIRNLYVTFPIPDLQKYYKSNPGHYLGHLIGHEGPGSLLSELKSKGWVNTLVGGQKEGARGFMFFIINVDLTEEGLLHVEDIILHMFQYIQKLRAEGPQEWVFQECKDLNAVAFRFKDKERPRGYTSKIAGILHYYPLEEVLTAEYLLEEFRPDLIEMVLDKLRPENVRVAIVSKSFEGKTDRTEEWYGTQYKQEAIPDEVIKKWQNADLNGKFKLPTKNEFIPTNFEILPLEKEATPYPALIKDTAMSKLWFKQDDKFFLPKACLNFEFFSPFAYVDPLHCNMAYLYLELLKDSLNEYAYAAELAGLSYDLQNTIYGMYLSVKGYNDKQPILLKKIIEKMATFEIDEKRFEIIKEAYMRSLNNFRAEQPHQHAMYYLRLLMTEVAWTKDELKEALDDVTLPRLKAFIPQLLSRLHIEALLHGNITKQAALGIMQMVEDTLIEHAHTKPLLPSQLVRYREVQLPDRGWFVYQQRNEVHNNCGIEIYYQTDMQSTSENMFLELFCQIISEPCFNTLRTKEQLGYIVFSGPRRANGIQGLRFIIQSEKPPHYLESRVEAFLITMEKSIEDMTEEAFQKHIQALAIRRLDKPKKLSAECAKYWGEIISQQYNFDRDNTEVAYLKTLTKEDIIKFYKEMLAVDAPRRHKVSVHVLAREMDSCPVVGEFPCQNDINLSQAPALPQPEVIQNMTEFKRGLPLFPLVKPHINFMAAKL
In words: Degradation of FITC-insulin-mAb by IDE. The format is biochemical. To be noted: for increase of IDE-mediated insulin (FITC-insulin-mAb) degradation: 20 µM compound; for effect of ATP on IDE activity for insulin degradation in presence of compound: 0.1 mM ATP; for pEC50: dose response, Sigmoidal Hill 4 parameter fit; for increase of initial rate of proteolysis of FITC-insulin bound with antibody: wild type IDE, presence vs absence of compound. The procedure: The 10 compounds given in Table 1 were subjected to further characterization and their effect was measured on the proteolytic activity of IDE using different substrates. Initially, activity assays were carried out at fixed 20 µM concentrations for all molecules to identify the effect of those compounds on IDE activity. IDE activity was quantified by monitoring the change in fluorescence for the proteolysis of fluorogenic-substrate V, FITC- insulin-bound antibody, and FAβB by recombinant human IDE purified from E.coli BL21 [6], [18], [19]. […] Also, D6 increased the amyloid-β degradation by 20% (Fig. S1C). Further, D10 enhanced IDE-mediated FITC-insulin-mAb and substrate V degradation by 290% and 65%, respectively (Fig. S1A, B). Next, an EC50 value of each molecule that enhanced IDE activity was determined with a dose response assay, where specific activity of IDE was measured with different concentrations of the lead compounds and then the plot was fit to Sigmoidal Hill-4 parameter equation. […] EC50 value for D3 on insulin degradation was approximately measured as 20 µM (Fig. S2C), whereas EC50 value for D6 on amyloid-β degradation was 2 µM (Fig. S2D). […] Among all these four compounds, D10 seems to be the potent activator of IDE, when proteolysis of insulin is considered.
In order to measure degradation of insulin by IDE, FITC-insulin is bound to the monoclonal mouse anti-human-insulin, so that the rotation of free FITC and possible changes in fluorescence polarization could be prevented. We performed enzymatic assays, using only FITC-insulin bound antibody as a background fluorescence and checked the effects of compounds on the cleavage of FITC-insulin-mAb. FITC-insulin is bound to mouse anti human insulin antibody in PBS at 37°C for 1 hour, which is higher than the optimum time required to obtain maximum binding of insulin-FITC conjugate and mAb. It is observed that 400 nM mAb completely binds to 50 nM FITC-insulin (Fig. S7). Since molecular weights of FITC-insulin and mAb are about 5.8 kDa and 60 kDa respectively, we observed very slight shift in the gel as expected. In figure S7, it is observed in lane 4 that 50 nM (100 ng) insulin is completely bound to 400 nM mAb in lane 4 (Fig. S7). […] The binding between insulin and mAb is shown by performing (%5 and %15) native polyacrylamide gel electrophoresis.
The utility of these novel compounds were tested on degradation of insulin by IDE. First insulin was labeled with FITC as described previously. Briefly, 500 mg insulin dissolved in 1.5 ml of 0.1 M Na-carbonate, at pH 7, and 0.2 mM EDTA. Then, 4.5 mg FITC was dissolved in 200 µl acetone and was added dropwise to previous solution at room temperature for 20 h ([FITC]∶[insulin], 3∶1). Finally, unreacted FITC was removed by dialysis and the FITC-insulin was stored at −20°C. The proteolysis of insulin by IDE was monitored by measuring the changes in fluorescence, where the reaction was carried out with 100 nM of FITC- insulin-mAb and IDE (80 ng) in 100 µl KH2PO4 buffer at a pH of 7.3. Reaction was carried out at 37°C for different time intervals (0–4 hours). The increase in fluorescence was monitored by using Fluoroskan Ascent FL microplate reader (Thermo).
The effect of the lead compounds on the initial rate of proteolysis of IDE was determined by measurement in fluorescence with time both in the presence and absence of the lead compounds. The kinetic data for IDE-mediated insulin, substrate V and amyloid-β degradation were plotted and fitted using SigmaPlot software (Sigmoidal, Hill, 4 parameter). For the initial rate calculations, kinetic data were fitted using SigmaPlot software (Hyperbola; Single Rectangular I, 3 Parameter).

Turning to `COc1ccc(C2C(C(=O)Nc3ccccc3)=C(C)N=c3sc(=Cc4cn(C)nc4C)c(=O)n32)cc1` (stereo not drawn) [Compound D3], the “increase of IDE-mediated insulin (FITC-insulin-mAb) degradation” value (shortened to “increase of IDE-mediated insulin”) turned out to be 72%, the “effect of ATP on IDE activity for insulin degradation in presence of compound” value (“effect of ATP on IDE activity” below) is given as “did not change significantly; also recorded: no effect”, the pEC50 was roughly 4.70 and the “increase of initial rate of proteolysis of FITC-insulin bound with antibody” value (“increase … of FITC-insulin bound with antibody” for short) was roughly 7.5 fold.

As to `Nc1c(C(=O)Nc2ccccc2F)c2ccccn2c1C(=O)c1ccc2c(c1)CCCC2` [Compound D4], the “increase of IDE-mediated insulin” value is given as 60%, the “effect of ATP on IDE activity” value is given as “did not change significantly; also recorded: no effect”, the pEC50 is 4.89 and the “increase … of FITC-insulin bound with antibody” value is roughly 12 fold.

As to `Cc1nn(-c2ccccc2)c2nc(-c3cccc([N+](=O)[O-])c3)n3c4ccccc4nc3c2c1=O` [Compound D10], the “increase of IDE-mediated insulin” value is 290% and ~275%; the “effect of ATP on IDE activity” value is listed as “did not change significantly; also recorded: no effect”; the negative-log EC50 (pEC50) is 4.92; the “increase … of FITC-insulin bound with antibody” value is reported as roughly 49 fold.

The values above are taken from paper PMC3280214, “Structure Based Discovery of Small Molecules to Regulate the Activity of Human Insulin Degrading Enzyme” (PLoS ONE, 2012).
